Data from US9776990B2, “Isoindolone derivatives” (AbbVie Inc., priority 2012, dated 2017).
Marks after values point to notes of the source that are not given here.

How the values were obtained:
[1] = test system: LPS induced IL-6 production; assay: LPS (lipopolysaccharide) induced IL-6 production mouse assay; assay type: in vivo; conditions: mice, one hour before LPS, serum 2 hours after LPS
Protocol: Compounds of the Examples listed in Table 8 were assayed for their ability to inhibit LPS (lipopolysaccharide) induced IL-6 production in mice. Severe combined immunodeficient female mice (8 per group) received an intraperitoneal challenge of lipopolysaccharide (2.5 mg/kg, L2630 E. coli 0111:B4) one hour after oral administration (PO) or intraperitoneal administration (IP) of compounds in a solution of 2% ethanol, 5% Tween-80, 20% PEG-400 and 73% (0.2% hydroxypropylmethylcellulose in water). Mice were euthanized 2 hours after lipopolysaccharide injection, blood was removed by cardiac puncture, and then the serum harvested from the blood samples was frozen at −80° C. On the day of the assay the serum samples were brought to room temperature and then diluted 1:20 in phosphate-buffered saline containing 2% bovine serum albumin. Interleukin-6 measurements were performed using a cytokine assay from Meso Scale Discovery (Gaithersburg, Md.) for mouse serum analysis according to the manufacturer's protocol and read on a SECTOR Imager 6000 (Meso Scale Discovery, Gaithersburg, Md.) instrument. Statistical analysis was performed using Prism software (version 5.0) incorporating Dunnett's one way ANOVA. The IL-6 mean and standard deviation of the group of vehicle treated animals were compared with the IL-6 mean and standard deviation of the group treated with drug. A p value <0.05 means that there is less than a 5% probability that the mean values in the two groups are equal.

[2] = test system: Ramos human B cell lymphoma cancer xenograft; assay: Xenograft tumor growth inhibition assay, Ramos; assay type: in vivo, mice; conditions: 100 mg/kg/day PO
Protocol: (§1) The effect of the compound of Example 40 to inhibit the growth of Ramos, OPM-2, MX-1, MV4-11, and HT1080 xenograft tumors was evaluated. Briefly, 0.5×10^6 human cancer cells (HT1080), 1×10^6 human cancer cells (Ramos), 5×10^6 human cancer cells (OPM-2, MV4-11) or 1:10 tumor brie (MX-1) (in S-MEM (MEM, Suspension, no Calcium, no Glutamine)) (Life Technologies Corporation) were inoculated subcutaneously into the right hind flank of female SCID or SCID-beige (MV4-11, HT1080) mice (Charles Rivers Labs) on study day 0. Compound was formulated in 2% EtOH, 5% Tween-80, 20% PEG-400, 73% HPMC (Ramos, OPM-2 and MX-1) or 5% DMSO, 5% EtOH, 30% PEG400, 60% Phosal 53 (MV4-11, HT1080). Administration of compound was initiated at the time of size match on day 8 (HT1080), day 17 (MX-1), or day 18 (Ramos, MV4-11, OPM-2). The tumors were measured by a pair of calipers twice a week starting at the time of size match and tumor volumes were calculated according to the formula V=L×W^2/2 (V: volume, mm^3; L: length, mm. W: width, m) Tumor volume was measured for the duration of the experiment until the mean tumor volume in each group reached an endpoint of >1000 mm^3.

[3] = test system: OPM-2 human multiple myeloma cancer xenograft; assay: Xenograft tumor growth inhibition assay, OPM-2; assay type: in vivo, mice; conditions: OPM-2 xenograft
Protocol: as §1

MDAMB231 = assay: Proliferation panel assay, MDAMB231; assay type: cell-based; conditions: Homo sapiens, MDA-MB-231, 120 h; Breast, MDAMB231, 5 days; read-out: Cellular Proliferation EC50
Protocol: (§2) The impact of compounds of the Examples on cancer cell proliferation was determined using the breast cancer cell line MX-1 (ATCC) in a 3-day proliferation assay. MX-1 cells were maintained in RPMI supplemented with 10% FBS at 37 C.° and an atmosphere of 5% CO2. For compound testing, MX-1 cells were plated in 96-well black bottom plates at a density of 5000 cells/well in 90 μl of culture media and incubated at 37° overnight to allow cell adhesion and spreading. Compound dilution series were prepared in DMSO via a 3-fold serial dilution from 3 mM to 0.1 μM. […]
(§3) Luminescence readings from the Cell Titer Glo assay were normalized to the DMSO treated cells and analyzed using the GraphPad Prism software with sigmoidal curve fitting to obtain EC50s. The minimum significant ratio (MSR) was determined to evaluate assay reproducibility (Eastwood et al., (2006) J Biomol Screen, 11: 253-261). The overall MSR was determined to be 2.1 and a moving MSR (last six run MSR overtime) has been <2.
(§4) The compound of Example 40 was tested for its impact on proliferation of a panel of cancer cell line types (with specific cell lines tested) as set out in (Table 2). […] Cell proliferation data were analyzed as described above in the MX-1 proliferation assay to obtain the EC50 for the compounds reported in Table 2.

PC3M = assay: Proliferation panel assay, PC3M; assay type: cell-based; conditions: Homo sapiens, PC-3M, 120 h, Prostate, 5 days, read-out: Cellular Proliferation EC50
Protocol: as §2, §3, §4

RPMI-8226 = assay: Proliferation panel assay, RPMI-8226; assay type: cell-based; conditions: Homo sapiens, 120 h; Multiple Myeloma, RPMI-8226, 5 days; read-out: Cellular Proliferation EC50
Protocol: as §2, §3, §4

A-375 = assay: Proliferation panel assay, A-375; assay type: cell-based; conditions: Homo sapiens, 120 h; Melanoma, A-375, 5 days; read-out: Cellular Proliferation EC50
Protocol: as §2, §3, §4

OPM2 = assay: Proliferation panel assay, OPM2; assay type: cell-based; conditions: Homo sapiens, OPM-2, 120 h; Multiple Myeloma, OPM2, 5 days; read-out: Cellular Proliferation EC50
Protocol: as §2, §3, §4

Ramos = assay: Proliferation panel assay, Ramos; assay type: cell-based; conditions: Homo sapiens, 120 h, NHL, 5 days, read-out: Cellular Proliferation EC50
Protocol: as §2, §3, §4

D54MG = assay: Proliferation panel assay, D54MG; assay type: cell-based; conditions: 120 h, Glioblastoma, 5 days, read-out: Cellular Proliferation EC50
Protocol: as §2, §3, §4

Cc1[nH]c(-c2cc(NS(C)(=O)=O)ccc2Oc2ccccc2)c2c1C(=O)CCC2 [Example 40, N-[3-(3-methyl-4-oxo-4,5,6,7-tetrahydro-2H-isoindol-1-yl)-4-phenoxyphenyl]methanesulfonamide]
% inhibition of LPS induced IL-6 production ([1]; 3 mg/kg (PO)): 28.7 at 3 mg/kg (PO) % | % inhibition of LPS induced IL-6 production ([1]; 10 mg/kg (PO)): 52.4 at 10 mg/kg (PO) % | % inhibition of LPS induced IL-6 production ([1]; 30 mg/kg (PO)): 72.7 at 30 mg/kg (PO) % | % inhibition of LPS induced IL-6 production ([1]; 50 mg/kg (IP)): 84.7 at 50 mg/kg (IP) % | % TGI (tumor growth inhibition) ([2]; BID (5on 3off) x 2, based on day 31): 35*** % | % TGD (tumor growth delay) ([2]; BID (5on 3off) x 2, endpoint 1000 mm^3): 40** % | % TGI (tumor growth inhibition) ([2]; QDx14, based on day 31): 30* % | % TGD (tumor growth delay) ([2]; QDx14, endpoint 1000 mm^3): 40* % | % TGI (tumor growth inhibition) ([3]; 10 mg/kg/day PO, BIDx14, based on day 31): 11% | % TGD (tumor growth delay) ([3]; 10 mg/kg/day PO, BIDx14, endpoint 1000 mm^3): 25% | % TGI (tumor growth inhibition) ([3]; 10 mg/kg/day PO, QDx14, based on day 31): 16% | % TGD (tumor growth delay) ([3]; 10 mg/kg/day PO, QDx14, endpoint 1000 mm^3): 25% | % TGI (tumor growth inhibition) ([3]; 30 mg/kg/day PO, BIDx14, based on day 31): 31* % | % TGD (tumor growth delay) ([3]; 30 mg/kg/day PO, BIDx14, endpoint 1000 mm^3): 88* % | % TGI (tumor growth inhibition) ([3]; 30 mg/kg/day PO, QDx14, based on day 31): 27* % | % TGD (tumor growth delay) ([3]; 30 mg/kg/day PO, QDx14, endpoint 1000 mm^3): 63% | % TGI (tumor growth inhibition) ([3]; 100 mg/kg/day PO, BIDx14, based on day 31): 43** % | % TGD (tumor growth delay) ([3]; 100 mg/kg/day PO, BIDx14, endpoint 1000 mm^3): 175*** % | % TGI (tumor growth inhibition) ([3]; 100 mg/kg/day PO, QDx14, based on day 31): 41** % | % TGD (tumor growth delay) ([3]; 100 mg/kg/day PO, QDx14, endpoint 1000 mm^3): 88*** % | EC50 (MDAMB231): 310 nM | EC50 (PC3M): 410 nM | EC50 (RPMI-8226): 94 nM | EC50 (A-375): 168 nM | EC50 (OPM2): 18 nM | EC50 (Ramos): 340 nM | EC50 (D54MG): 210 nM
